Assay results as given in publication PMC7247425, “MRP1-Collateral Sensitizers as a Novel Therapeutic Approach in Resistant Cancer Therapy: An In Vitro and In Vivo Study in Lung Resistant Tumor” (International Journal of Molecular Sciences, 2020).

Tests used:
A549/DX cells [1] = assay: Cell viability (MTT) of A549/DX cells at 72 h, alone and in co-administration; assay type: cell-based, human; settings: for Cell viability / cytotoxic effect, compound alone: 10 μM; for Cell viability in co-administration with MRP1 inhibitor MK571: compound 10 μM + MK571 25 μM; for Cytotoxic effect in co-administration with cis-Pt: compound 10 μM + cis-Pt 25 μM
Method: Indeed, the accurate detection of cell viability in A549 cells was critical in calculating the SR in a reliable manner.
First, we wondered if there was a correlation between the inhibition of the MRP1 protein and the CS properties of the compounds.
(§1) The determination of cell growth was performed using an MTT assay at 24 or 72 h. On day 1, 10,000 cells/well were seeded into 96-well plates in a volume of 100 μL. […] In all the experiments, the various drug solvents (ethanol, DMSO) were added in each control to evaluate a possible solvent cytotoxicity. After the established incubation time with drugs, 10 μL MTT (0.5 mg/mL) was added to each well, and after 3 h incubation at 37°C, the supernatant was removed. The formazan crystals were solubilized using 100 μL of DMSO and the absorbance values at 570 and 630 nm were determined on the microplate reader Victor 3 from PerkinElmer Life Sciences. The absorbance of the untreated cells was considered equal to 100% cell viability; the viability of cells measured in each experimental condition was expressed as a percentage of viable cells in the considered condition vs. the viability of the untreated cells.

A549/DX cells [2] = assay: In vivo tumor growth of A549/DX xenografts; parameters: species or system nu/nu BALB/C mice; settings: for Tumor growth, single agent: A549/DX xenografts in nu/nu BALB/C mice, 750 nmoles i.p. on day 1, 7, 14; for Tumor growth, co-administration with MK571 / Tumor growth, co-administration with cis-Pt: A549/DX xenografts; for Tumor growth, co-administration with MK571: 750 nmoles + 3 mg/kg MK571 i.p.; for Tumor growth, co-administration with cis-Pt: 750 nmoles + 50 mg/kg cis-Pt i.p.
Method: In order to translate in vivo the capability of F397, F400, and F421 to act as “sensitizers”, A549/DX cells were implanted in immune-deficient BALB/C mice, and once the tumor reached the volume of 50 mm^3, the mice were randomized and treated […] with the vehicle (saline solution) and/or cis-Pt.
(§2) Here, 1 × 10^6 A549/DX cells were mixed with 100 μl Matrigel implanted in 6-week-old female nu/nu BALB/C mice (Charles River Laboratories Italia, Calco, Italy), housed (5 per cage) under 12 h light/dark cycle, with food and drinking provided ad libitum. Tumor growth was measured daily by caliper, according to the equation (LxW2)/2, where L = tumor length and W = tumor width. When the tumor reached the volume of 50 mm^3, mice (n = 8/group) were randomized and treated as reported in the following groups, treated on day 1, 7, and 14 after randomization: (1) vehicle group (ctrl), treated intraperitoneally (i.p.) with 100 µL saline solution; (2) cis-Pt group, treated i.p. with 50 mg/kg cis-Pt, dissolved in 100 µL water/10% DMSO solution, according to Kopecka et al., 2015 [53]; (3) F397 group, treated i.p. with 750 nmoles of the compound, dissolved in 100 µL water/10% DMSO solution, corresponding to the maximum tolerated dose (not shown and Table 2); (4) F421 group, treated i.p. with 750 nmoles of the compound, dissolved in 100 µL water/10% DMSO solution i.p, corresponding to the maximum tolerated dose (not shown and Table 2); (5) cis-Pt/F397 group, treated i.p. with 50 mg/kg Cis-Pt and 750 nmoles of F397; (6) cis-Pt/F421 group, treated i.p. with 50 mg/kg cis-Pt and 750 nmoles of F421; (7) MK571 group, treated i.p. with 3 mg/kg MK571 dissolved in 100 µL water/10% DMSO solution, according to Jones et al., 1989 [56]; (8) MK571/F397 group, treated i.p. with 3 mg/kg MK571 and 750 nmoles of F397; (9) MK571/F421 group, treated i.p. with 3 mg/kg MK571 and 750 nmoles of F421. Tumor volumes were monitored daily. Animals were euthanized at day 21 after randomization with zolazepam (0.2 mL/kg) and xylazine (16 mg/kg). Lactate dehydrogenase (LDH), aspartate aminotransferase (AST), alanine aminotransferase (ALT), alkaline phosphatase (AP), creatinine, and creatine phosphokinase (CPK) were measured on blood samples collected immediately after euthanasia, using commercially available kits from Beckman Coulter Inc. (Beckman Coulter, Miami, FL, USA).

MDCK-MRP1 cells = assay: Antiproliferative MTT assay in MDCK-wt and MDCK-MRP1 cells, selectivity ratio; assay type: cell-based, canine; settings: EC50 of MDCK cells/EC50 of MDCK-MRP1 cells
Method: Within the search for novel CS agents acting on MRP1 proteins, the compounds selected among the different series of sigma-2 ligands were investigated for their activity at MRP1, paralleled with their cytotoxicity in the parental Madin–Darby canine kidney (MDCK-wt) cells and in the MDR-derived cells (MDCK-MRP1) for the determination of their SR (EC50 parental cells/EC50 MDR cells). The activity at the MRP1 pump was determined measuring the transport inhibition of the pro-fluorescent probe Calcein-AM, an MRP1 substrate, in the MRP1-overexpressing cell line (MDCK-MRP1) by the in vitro biological assay usually performed to study an MRP1 interaction. […] The SR was measured as the EC50 of the MDCK cells/EC50 of the MDCK-MRP1 cells.
as §1

P-gp = tested on: P-gp; parameters: method as in PMID 24106081; settings: MCF7 cell line; read-out: EC50, P-gp inhibition; cited from earlier work
MCF7 cell line = tested on: MCF7 cell line; parameters: method as in PMID 24106081; settings: MCF7 cells; read-out: EC50, cytotoxicity in MCF7; cited from earlier work
[3] = Hemato-chemical parameters and tolerability in treated mice; assay type: in vivo; parameters: Creatinine: unit not given here; settings: for ALT / AP / AST / CPK / Creatinine / LDH: blood after euthanasia day 21, i.p. treatment day 1, 7, 14, means ± SD, n = 8; for Maximum tolerated dose: i.p., in 100 µL water/10% DMSO, mice (not shown)
Method: as §2

in vitro = assay type: cell-based; settings: human
Source text: Nevertheless, the involvement of a sigma-2 receptor-mediated effect was ruled out by the detection of a low density of sigma-2 receptors in A549 cells (data not shown). […].

[4] = Solubility in solvents suitable for in vivo studies; assay type: physicochemical
Source text: Of note, the dose of F397 and F421 effective as an anti-tumor agent in vivo was lower than the dosage effective as an anti-proliferative agent in vitro. One possible reason could be that part of the anti-tumor effect of the compounds was mediated by their activity on the tumor microenvironment, not necessarily only on tumor cells. This aspect cannot be evaluated in the viability assays performed in vitro and could lead to an underestimation of the compounds’ potency. Further, the repeated administration of F397 and F421 followed in vivo instead of the single dosage used in vitro can be an additional explanation. […] This could also be the case of F397 and F421 against A549/DX tumors. […] It is also worth noting that the treatment was not toxic for liver, heart, and kidney compared with the control, as shown from the hemato-chemical parameters of the animals (Table 2).

| Compound | Cell viability / cytotoxic effect, compound alone (A549/DX cells [1]) | Cell viability in co-administration with MRP1 inhibitor MK571 (A549/DX cells [1]) | Cytotoxic effect in co-administration with cis-Pt (A549/DX cells [1]) | Tumor growth, single agent (A549/DX cells [2]) | Tumor growth, co-administration with MK571 (A549/DX cells [2]) | Tumor growth, co-administration with cis-Pt (A549/DX cells [2]) | SR (selectivity ratio) (MDCK-MRP1 cells) | EC50 (P-gp) | EC50 (MCF7 cell line) | ALT [3] | AP [3] | AST [3] | CPK [3] | Creatinine [3] | LDH [3] | Maximum tolerated dose [3] | EC50 (in vitro) | Solubility in solvents suitable for in vivo studies [4] |
| --- | --- | --- | --- | --- | --- | --- | --- | --- | --- | --- | --- | --- | --- | --- | --- | --- | --- | --- |
| COc1cc2c(cc1OC)CN(CCCCc1cn(-c3ccc(F)cc3)c3ccccc13)CC2 [F397, 6,7-dimethoxy-2-{4-[1-(4-fluorophenyl)-1H-indol-3-yl]butyl}-1,2,3,4-tetrahydroisoquinoline] | cytotoxic effect on their own | reverted by the MRP1 inhibitor MK571 | drastically increases upon co-administration with cis-Pt | low growth reduction | abated the cytotoxic effect | greatly reduced tumor growth | 3.41 | 0.21 µM | 17.8 µM | 37 ± 108 U/L | 112 ± 32 U/L | 81 ± 24 U/L | 324 ± 72 U/L | 0.043 ± 0.009 | 6729 ± 492 U/L | 750 nmol |  |  |
| COc1cc2c(cc1OC)CN(C(=O)CCC1CCCc3c(OC)cccc31)CC2 (stereo not shown) [F400, 6,7-dimethoxy-2-[3-(5-methoxy-1,2,3,4-tetrahydronaphthalen-1-yl)propionyl]-1,2,3,4 tetrahydroisoquinoline] | cytotoxic effect on their own | reverted by the MRP1 inhibitor MK571 | drastically increases upon co-administration with cis-Pt |  |  |  | 5.91 |  |  |  |  |  |  |  |  |  | > 100 µM | could not be dissolved in solvents suitable for in vivo studies |
| COc1ccc(CNCCCCc2cn(-c3ccc(F)cc3)c3ccccc23)cc1OC [F421, N-{4-[1-(4-fluorophenyl)-1H-indol-3-yl]butyl}-3,4-dimethoxybenzylamine] | cytotoxic effect on their own | reverted by the MRP1 inhibitor MK571 | drastically increases upon co-administration with cis-Pt | low growth reduction | abated the cytotoxic effect | greatly reduced tumor growth | 2.47 |  |  | 33 ± 13 U/L | 143 ± 34 U/L | 82 ± 37 U/L | 321 ± 72 U/L | 0.045 ± 0.011 | 7182 ± 892 U/L | 750 nmol | > 100 µM |  |
